Assay results reported in patent US9227970B2, “Triazolopyridine compounds” (Hoffmann-La Roche Inc., priority 2011, dated 2016).

Experiments:
human PDE10A = human PDE10A (Homo sapiens (Human), UniProt Q9Y233); test: human PDE10A full length Scintillation Proximity Assay (SPA); type: biochemical; settings: 50 nM cGMP + 50 nM [3H]-cGMP, 20 minutes at room temperature, read-out: PDE10A inhibition IC50
Experimental: The following test was carried out in order to determine the activity of the compounds of the present invention. […] The human PDE10A full length assay was performed in 96-well micro titer plates. […] A range of concentrations of the potential inhibitor was used to generate data for calculating the concentration of inhibitor resulting in 50% of the effect (e.g. […] Non-specific activity was tested without the enzyme. The reaction was initiated by the addition of the substrate solution (cGMP and [^3H]-cGMP) and allowed to progress for 20 minutes at room temperature. The reaction was terminated by adding 25 μl of YSi-SPA scintillation beads (GE Healthcare, cat. # RPNQ0150) in 18 mM zinc sulphate solution (stop reagent). […] Afterwards, radioactive counts were measured on a Perkin Elmer Top-Count Scintillation plate reader.

Salmonella = test: Ames test (downscaled preincubation version); type: cell-based; settings: downscaled standard preincubation Ames test
Experimental: Ames Test was performed as a downscaled version of the standard preincubation Ames test and adapted from the method described by Kado et al. with some modifications e.g. Maron. D. M. and B. N. Ames (1983). Revised methods for the Salmonella mutagenicity test. Mutation Research, 113, 173-215. N. Y. Kado, D. Langley and E. Eisenstadt A simple modification of the Salmonella liquid-incubation assay. Increased sensitivity for detecting mutagens in human urine, Mutat Res 121 (1983) 25-32.

Chain of human PDE10A (Q9Y233 other isoform, or with tags, fused parts or gaps): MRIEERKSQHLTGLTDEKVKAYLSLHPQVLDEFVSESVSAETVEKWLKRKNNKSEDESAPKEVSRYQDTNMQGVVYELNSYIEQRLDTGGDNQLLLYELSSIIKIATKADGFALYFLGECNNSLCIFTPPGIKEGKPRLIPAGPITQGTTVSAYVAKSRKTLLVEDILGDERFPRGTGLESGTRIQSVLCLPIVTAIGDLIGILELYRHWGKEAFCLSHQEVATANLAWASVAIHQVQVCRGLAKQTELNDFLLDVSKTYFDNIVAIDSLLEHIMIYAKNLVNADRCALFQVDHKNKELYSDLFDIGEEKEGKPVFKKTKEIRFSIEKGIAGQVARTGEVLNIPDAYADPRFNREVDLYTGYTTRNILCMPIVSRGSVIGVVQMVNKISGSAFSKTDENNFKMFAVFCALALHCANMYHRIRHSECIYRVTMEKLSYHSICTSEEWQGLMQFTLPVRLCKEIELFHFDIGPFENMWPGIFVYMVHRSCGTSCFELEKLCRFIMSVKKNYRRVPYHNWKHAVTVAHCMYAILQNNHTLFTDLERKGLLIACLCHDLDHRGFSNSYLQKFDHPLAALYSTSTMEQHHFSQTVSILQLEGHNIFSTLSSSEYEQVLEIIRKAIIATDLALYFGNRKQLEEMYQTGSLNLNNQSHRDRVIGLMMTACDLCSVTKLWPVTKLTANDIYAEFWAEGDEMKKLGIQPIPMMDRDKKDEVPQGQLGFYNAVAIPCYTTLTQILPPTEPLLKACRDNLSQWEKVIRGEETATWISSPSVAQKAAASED

SMILES	IC50 (human PDE10A)	Ames test (Salmonella)	melting point
Cn1ncc(C(=O)N2CCC2)c1C(=O)Nc1ccc2nc(-c3ccccc3)nn2c1 [Example 3, 4-(Azetidine-1-carbonyl)-2-methyl-2H-pyrazole-3-carboxylic acid (2-phenyl-[1,2,4]triazolo[1,5-a]pyridin-6-yl)-amide]	0.6 nM	negative	235 to 236 °C
CN(C)c1nc2ccc(NC(=O)c3c(C(=O)N4CCC4)cnn3C)cn2n1 [Example 20, 4-(Azetidine-1-carbonyl)-2-methyl-2H-pyrazole-3-carboxylic acid (2-dimethylamino-[1,2,4]triazolo[1,5-a]pyridin-6-yl)-amide]	8.2 nM	negative	–
Cn1ncc(C(=O)N2CCC2)c1C(=O)Nc1ccc2nc(N3CCOCC3)nn2c1 [Example 15]	–	negative	–
CN(C(=O)c1cnn(C)c1C(=O)Nc1ccc2nc(-c3cccnc3)nn2c1)C1CC1 [Example 11, N4-Cyclopropyl-N4,1-dimethyl-N5-(2-(pyridin-3-yl)-[1,2,4]triazolo[1,5-a]pyridin-6-yl)-1H-pyrazole-4,5-dicarboxamide]	6.7 nM	negative	237 °C
Cn1ncc(C(=O)O)c1C(=O)Nc1ccc2nc(-c3ccccc3)nn2c1 [Example 1, 1-Methyl-5-(2-phenyl-[1,2,4]triazolo[1,5-a]pyridin-6-ylcarbamoyl)-1H-pyrazole-4-carboxylic acid]	47.3 nM	–	259 °C
Cn1ncc(C(=O)N2CCCC2)c1C(=O)Nc1ccc2nc(N3CCOCC3)nn2c1 [Example 13, 2-Methyl-4-(pyrrolidine-1-carbonyl)-2H-pyrazole-3-carboxylic acid (2-morpholin-4-yl-[1,2,4]triazolo[1,5-a]pyridin-6-yl)-amide]	15.4 nM	–	185 °C
Cn1ncc(C(=O)N2CCOCC2)c1C(=O)Nc1ccc2nc(-c3ccccc3)nn2c1 [Example 5, 1-Methyl-4-(morpholine-4-carbonyl)-N-(2-phenyl-[1,2,4]triazolo[1,5-a]pyridin-6-yl)-1H-pyrazole-5-carboxamide]	2.5 nM	negative	183 to 185 °C
Cn1ncc(C(=O)N2CCOCC2)c1C(=O)Nc1ccc2nc(-c3cccnc3)nn2c1 [Example 9, 2-Methyl-4-(morpholine-4-carbonyl)-2H-pyrazole-3-carboxylic acid (2-pyridin-3-yl-[1,2,4]triazolo[1,5-a]pyridin-6-yl)-amide]	13.2 nM	–	229 °C
CN(C)c1nc2ccc(NC(=O)c3c(C(=O)N4CCOCC4)cnn3C)cn2n1 [Example 19, 2-Methyl-4-(morpholine-4-carbonyl)-2H-pyrazole-3-carboxylic acid (2-dimethylamino-[1,2,4]triazolo[1,5-a]pyridin-6-yl)-amide]	36 nM	negative	–
